What was measured:
[1] = target: intracellular GCN2 (phosphorylation of the GCN2 substrate eIF2α) (Homo sapiens, UniProt Q9P2K8); experiment: GCN2 cellular inhibition assay (AlphaScreen SureFire P-eIF2α Ser51, borrelidin-treated U2OS cells); assay type: cell-based; conditions: compounds of Formula IV; biomarker assay, phosphorylated eIF2α Ser51 in borrelidin-treated U2OS cells
Outline: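 Phospho-eIF2α (Ser51) in lysates was quantified by AlphaScreen SureFire after a 1 h, 37 °C treatment of U2OS cells with 10 μM borrelidin and compound at 4-fold dilutions starting from 40 μM final. Inhibition expressed in percent against wells stimulated by borrelidin alone.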

GCN2 kinase = GCN2 kinase (Homo sapiens, UniProt Q9P2K8); experiment: GCN2 enzyme inhibition assay (Transcreener ADP2 fluorescence polarization); assay type: biochemical; conditions: Enzyme activity for compounds of Formula IV; Ki(app), 280 μM ATP, 25° C.
Outline: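 Kinase activity is followed as ADP formation, measured by fluorescence polarization, using 4 nM enzyme with 280 μM ATP and 200 μM (RS)7 peptide at pH 7.5 and 25 °C for 1 h. Values come from a non-linear tight-binding fit.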

GCN2 kinase, sequence (Q9P2K8 whole entry): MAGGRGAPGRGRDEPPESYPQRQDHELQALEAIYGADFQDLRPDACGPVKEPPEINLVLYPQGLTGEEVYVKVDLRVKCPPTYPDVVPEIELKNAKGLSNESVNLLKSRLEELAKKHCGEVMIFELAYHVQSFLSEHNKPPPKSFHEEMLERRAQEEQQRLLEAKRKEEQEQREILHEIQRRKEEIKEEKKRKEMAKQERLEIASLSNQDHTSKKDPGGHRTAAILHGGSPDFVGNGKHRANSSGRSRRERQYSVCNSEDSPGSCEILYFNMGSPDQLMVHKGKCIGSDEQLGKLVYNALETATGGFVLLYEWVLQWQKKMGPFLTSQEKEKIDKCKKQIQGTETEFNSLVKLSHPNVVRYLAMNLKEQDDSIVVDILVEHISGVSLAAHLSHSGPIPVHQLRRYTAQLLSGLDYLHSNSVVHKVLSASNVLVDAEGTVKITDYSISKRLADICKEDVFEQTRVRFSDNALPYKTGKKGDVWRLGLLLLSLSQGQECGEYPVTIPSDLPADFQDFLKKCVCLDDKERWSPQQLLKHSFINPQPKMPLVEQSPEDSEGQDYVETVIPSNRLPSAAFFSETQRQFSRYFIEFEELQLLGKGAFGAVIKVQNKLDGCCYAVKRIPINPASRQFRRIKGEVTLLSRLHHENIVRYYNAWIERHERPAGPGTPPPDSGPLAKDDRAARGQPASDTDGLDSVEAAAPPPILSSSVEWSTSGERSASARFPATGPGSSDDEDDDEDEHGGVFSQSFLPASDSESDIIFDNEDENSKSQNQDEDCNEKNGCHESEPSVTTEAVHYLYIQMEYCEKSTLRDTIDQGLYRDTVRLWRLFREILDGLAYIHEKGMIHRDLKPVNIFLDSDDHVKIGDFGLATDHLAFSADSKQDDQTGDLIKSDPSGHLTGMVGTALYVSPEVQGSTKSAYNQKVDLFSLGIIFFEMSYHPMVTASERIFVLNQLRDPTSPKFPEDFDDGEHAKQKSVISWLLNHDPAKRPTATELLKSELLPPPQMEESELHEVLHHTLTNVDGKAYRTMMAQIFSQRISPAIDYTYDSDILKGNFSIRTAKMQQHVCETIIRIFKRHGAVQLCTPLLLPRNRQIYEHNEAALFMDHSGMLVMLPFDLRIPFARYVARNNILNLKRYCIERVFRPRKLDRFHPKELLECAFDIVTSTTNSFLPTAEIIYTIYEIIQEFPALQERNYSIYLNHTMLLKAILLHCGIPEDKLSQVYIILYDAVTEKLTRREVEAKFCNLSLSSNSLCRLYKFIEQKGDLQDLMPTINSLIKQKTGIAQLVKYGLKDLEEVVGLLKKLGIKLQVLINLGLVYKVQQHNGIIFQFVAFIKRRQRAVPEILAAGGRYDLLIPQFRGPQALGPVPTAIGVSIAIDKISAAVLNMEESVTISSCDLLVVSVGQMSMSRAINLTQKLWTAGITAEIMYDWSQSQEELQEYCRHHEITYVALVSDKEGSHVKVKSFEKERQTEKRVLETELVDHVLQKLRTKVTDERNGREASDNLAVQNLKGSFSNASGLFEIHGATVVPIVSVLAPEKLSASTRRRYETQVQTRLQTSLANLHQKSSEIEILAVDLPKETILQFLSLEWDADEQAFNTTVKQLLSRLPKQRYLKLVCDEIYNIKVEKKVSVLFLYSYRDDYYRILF
intracellular GCN2 (phosphorylation of the GCN2 substrate eIF2α), sequence (Q9P2K8 whole entry): as above

SMILES	IC50 [1] [nM]	Ki (GCN2 kinase) [nM]
CNC(=O)C1CCCN(c2ccnc(-c3cnc4cnc(C(F)F)cn34)n2)C1 (stereo not drawn) [IV-44, 1-(2-(6-(Difluoromethyl)imidazo[1,2-a]pyrazin-3-yl)pyrimidin-4-yl)-N-methylpiperidine-3-carboxamide]	> 5000	100 to 1000
NC(=O)CCC1CCCN(c2ccnc(-c3cnc4cnc(C(F)F)cn34)n2)C1 (stereo not drawn) [IV-45, 3-(1-(2-(6-(Difluoromethyl)imidazo[1,2-a]pyrazin-3-yl)pyrimidin-4-yl)piperidin-3-yl)propanamide]	> 5000	100 to 1000
CC1CN(c2nccc(-c3cnc4cnc(C(F)F)cn34)n2)CC(CNS(C)(=O)=O)C1(F)F (stereo not drawn) [IV-46, N-((1-(4-(6-(Difluoromethyl)imidazo[1,2-a]pyrazin-3-yl)pyrimidin-2-yl)-4,4-difluoro-5-methylpiperidin-3-yl)methyl)methanesulfonamide]	> 5000	100 to 1000
NC(=O)C1CN(c2ccnc(-c3cnc4cnc(C(F)F)cn34)n2)CCO1 (stereo not drawn) [IV-48, 4-(2-(6-(Difluoromethyl)imidazo[1,2-a]pyrazin-3-yl)pyrimidin-4-yl)morpholine-2-carboxamide]	> 5000	100 to 1000
O=C1CCN(c2ccnc(-c3cnc4cnc(C(F)F)cn34)n2)CCN1 [IV-49, 1-(2-(6-(Difluoromethyl)imidazo[1,2-a]pyrazin-3-yl)pyrimidin-4-yl)-1,4-diazepan-5-one]	> 5000	100 to 1000
NC(=O)[C@H]1CCCN(c2ccnc(-c3cnc4cnc(C(F)F)cn34)n2)C1 [IV-50, (S)-1-(2-(6-(Difluoromethyl)imidazo[1,2-a]pyrazin-3-yl)pyrimidin-4-yl)piperidine-3-carboxamide]	500 to 5000	10 to 100
FC(F)c1cn2c(-c3nccc(N4CCCC(c5nn[nH]n5)C4)n3)cnc2cn1 (stereo not drawn) [IV-51, 3-(4-(3-(2H-Tetrazol-5-yl)piperidin-1-yl)pyrimidin-2-yl)-6-(difluoromethyl)imidazo[1,2-a]pyrazine]	> 5000	100 to 1000
FC(F)c1cn2c(-c3nccc(N4CCCC(c5cccnc5)C4)n3)cnc2cn1 (stereo not drawn) [IV-52, 6-(Difluoromethyl)-3-(4-(3-(pyridin-3-yl)piperidin-1-yl)pyrimidin-2-yl)imidazo[1,2-a]pyrazine]	> 5000	100 to 1000
FC(F)c1cn2c(-c3nccc(N4CCCC(c5c[nH]cn5)C4)n3)cnc2cn1 (stereo not drawn) [IV-53, 3-(4-(3-(1H-Imidazol-4-yl)piperidin-1-yl)pyrimidin-2-yl)-6-(difluoromethyl)imidazo[1,2-a]pyrazine]	500 to 5000	10 to 100
CC1C(C(N)=O)CCCN1c1ccnc(-c2cnc3cnc(C(F)F)cn23)n1 (stereo not drawn) [IV-54, 1-(2-(6-(Difluoromethyl)imidazo[1,2-a]pyrazin-3-yl)pyrimidin-4-yl)-2-methylpiperidine-3-carboxamide]	500 to 5000	10 to 100
NC(=O)C1CCCN(c2cccc(-c3cnc4cnc(C(F)F)cn34)n2)C1 (stereo not drawn) [IV-55, 1-(6-(6-(Difluoromethyl)imidazo[1,2-a]pyrazin-3-yl)pyridin-2-yl)piperidine-3-carboxamide]	500 to 5000	10 to 100
NS(=O)(=O)C1CCCN(c2ccnc(-c3cnc4cnc(C(F)F)cn34)n2)C1 (stereo not drawn) [IV-56, 1-(2-(6-(Difluoromethyl)imidazo[1,2-a]pyrazin-3-yl)pyrimidin-4-yl)piperidine-3-sulfonamide]	> 5000	100 to 1000
CC1(C(N)=O)CCCN(c2ccnc(-c3cnc4cnc(C(F)F)cn34)n2)C1 (stereo not drawn) [IV-57, 1-(2-(6-(Difluoromethyl)imidazo[1,2-a]pyrazin-3-yl)pyrimidin-4-yl)-3-methylpiperidine-3-carboxamide]	> 5000	100 to 1000
FC(F)c1cn2c(-c3nccc(N4CCCC(c5cn[nH]c5)C4)n3)cnc2cn1 (stereo not drawn) [IV-58, 3-(4-(3-(1H-Pyrazol-4-yl)piperidin-1-yl)pyrimidin-2-yl)-6-(difluoromethyl)imidazo[1,2-a]pyrazine]	500 to 5000	10 to 100
FC(F)(F)c1cn2c(-c3nccc(N4CCCC(c5cn[nH]c5)C4)n3)cnc2cn1 (stereo not drawn) [IV-59, 3-(4-(3-(1H-Pyrazol-4-yl)piperidin-1-yl)pyrimidin-2-yl)-6-(trifluoromethyl)imidazo[1,2-a]pyrazine]	< 500	< 10
NC(=O)[C@H]1CCCN(c2ccnc(-c3cnc4cnc(C(F)(F)F)cn34)n2)C1 [IV-60, (S)-1-(2-(6-(Trifluoromethyl)imidazo[1,2-a]pyrazin-3-yl)pyrimidin-4-yl)piperidine-3-carboxamide]	500 to 5000	< 10
CC(NS(C)(=O)=O)C1CN(c2ccnc(-c3cnc4cnc(C(F)F)cn34)n2)CCO1 (stereo not drawn) [IV-61, N-(1-(4-(2-(6-(Difluoromethyl)imidazo[1,2-a]pyrazin-3-yl)pyrimidin-4-yl)morpholin-2-yl)ethyl)methanesulfonamide]	> 5000	100 to 1000
CC(NS(C)(=O)=O)C1CN(c2ccnc(-c3cnc4cnc(C(F)F)cn34)n2)CCO1 (stereo not drawn) [IV-62, N-(1-(4-(2-(6-(Difluoromethyl)imidazo[1,2-a]pyrazin-3-yl)pyrimidin-4-yl)morpholin-2-yl)ethyl)methanesulfonamide]	> 5000	100 to 1000
NC(=O)C1CCN(c2ccnc(-c3cnc4cnc(C(F)F)cn34)n2)C1 (stereo not drawn) [IV-63, 1-(2-(6-(Difluoromethyl)imidazo[1,2-a]pyrazin-3-yl)pyrimidin-4-yl)pyrrolidine-3-carboxamide]	> 5000	100 to 1000

Second part, the compound after the results:

IC50 [1] [nM]	Ki (GCN2 kinase) [nM]	SMILES
> 5000	100 to 1000	FC(F)c1cn2c(-c3nccc(N4CCC(c5cc[nH]n5)C4)n3)cnc2cn1 (stereo not drawn) [IV-64, 3-(4-(3-(1H-Pyrazol-3-yl)pyrrolidin-1-yl)pyrimidin-2-yl)-6-(difluoromethyl)imidazo[1,2-a]pyrazine]
> 5000	100 to 1000	Cn1cc(C2CCN(c3ccnc(-c4cnc5cnc(C(F)F)cn45)n3)C2)cn1 (stereo not drawn) [IV-65, 6-(Difluoromethyl)-3-(4-(3-(1-methyl-1H-pyrazol-4-yl)pyrrolidin-1-yl)pyrimidin-2-yl)imidazo[1,2-a]pyrazine]
> 5000	100 to 1000	FC(F)c1cn2c(-c3nccc(N4CCC(c5c[nH]cn5)C4)n3)cnc2cn1 (stereo not drawn) [IV-67, 3-(4-(3-(1H-Imidazol-4-yl)pyrrolidin-1-yl)pyrimidin-2-yl)-6-(difluoromethyl)imidazo[1,2-a]pyrazine]
> 5000	100 to 1000	FC(F)c1cn2c(-c3nccc(N4CCC(c5ccncc5)C4)n3)cnc2cn1 (stereo not drawn) [IV-68, 6-(Difluoromethyl)-3-(4-(3-(pyridin-4-yl)pyrrolidin-1-yl)pyrimidin-2-yl)imidazo[1,2-a]pyrazine]
> 5000	100 to 1000	O=C1NCCC12CCN(c1ccnc(-c3cnc4cnc(C(F)F)cn34)n1)C2 (stereo not drawn) [IV-69, 7-(2-(6-(Difluoromethyl)imidazo[1,2-a]pyrazin-3-yl)pyrimidin-4-yl)-2,7-di azaspiro[4.4]nonan-1-one]
> 5000	100 to 1000	CS(=O)(=O)NC1CCN(c2ccnc(-c3cnc4cnc(C(F)F)cn34)n2)C1 (stereo not drawn) [IV-70, N-(1-(2-(6-(Difluoromethyl)imidazo[1,2-a]pyrazin-3-yl)pyrimidin-4-yl)pyrrolidin-3-yl)methanesulfonamide]
> 5000	100 to 1000	CNS(=O)(=O)C1CCN(c2ccnc(-c3cnc4cnc(C(F)F)cn34)n2)C1 (stereo not drawn) [IV-71, 1-(2-(6-(Difluoromethyl)imidazo[1,2-a]pyrazin-3-yl)pyrimidin-4-yl)-N-methylpyrrolidine-3-sulfonamide]
> 5000	100 to 1000	OC1CCN(c2ccnc(-c3cnc4cnc(C(F)F)cn34)n2)C1 (stereo not drawn) [IV-72, 1-(2-(6-(Difluoromethyl)imidazo[1,2-a]pyrazin-3-yl)pyrimidin-4-yl)pyrrolidin-3-ol]
> 5000	100 to 1000	FC(F)c1cn2c(-c3nccc(N4CCC(C5COC5)C4)n3)cnc2cn1 (stereo not drawn) [IV-73, 6-(Difluoromethyl)-3-(4-(3-(oxetan-3-yl)pyrrolidin-1-yl)pyrimidin-2-yl)imidazo[1,2-a]pyrazine]
> 5000	100 to 1000	NS(=O)(=O)NCC1CCCN(c2ccnc(-c3cnc4cnc(C(F)F)cn34)n2)C1 (stereo not drawn) [IV-74, 6-(Difluoromethyl)-3-[4-[3-[(sulfamoylamino)methyl]-1-piperidyl]pyrimidin-2-yl]imidazo[1,2-a]pyrazine]
> 5000	100 to 1000	FC(F)c1cn2c(-c3nccc(N4CCC5(CCC5)C4)n3)cnc2cn1 [IV-75, 3-[4-(6-Azaspiro[3.4]octan-6-yl)pyrimidin-2-yl]-6-(difluoromethyl)imidazo[1,2-a]pyrazine]
> 5000	100 to 1000	FC(F)c1cn2c(-c3nccc(N4CCC(c5cccnc5)C4)n3)cnc2cn1 (stereo not drawn) [IV-76, 6-(Difluoromethyl)-3-(4-(3-(pyridin-3-yl)pyrrolidin-1-yl)pyrimidin-2-yl)imidazo[1,2-a]pyrazine]
> 5000	100 to 1000	FC(F)c1cn2c(-c3nccc(N4CCC(c5ccccn5)C4)n3)cnc2cn1 (stereo not drawn) [IV-77, 6-(Difluoromethyl)-3-(4-(3-(pyridin-2-yl)pyrrolidin-1-yl)pyrimidin-2-yl)imidazo[1,2-a]pyrazine]
> 5000	100 to 1000	CC(=O)N1CCN(c2ccnc(-c3cnc4cnc(C(C)(F)F)cn34)n2)CC1 [IV-78, 1-(4-(2-(6-(1,1-Difluoroethyl)imidazo[1,2-a]pyrazin-3-yl)pyrimidin-4-yl)piperazin-1-yl)ethan-1-one]
